According to patent US4652566A, “Benzofuran derivatives, processes for preparing the same and antihypertensive agents containing the same” (Kaken Pharmaceutical Co., Ltd., priority 1984, dated 1987):
Where a name gives a salt, the structure may show the parent alone.

Key:
[1] = Antihypertensive effect and effect on heart rate in spontaneously hypertensive rat (SHR); assay type: in vivo; settings: po, single dose
Experimental: [Antihypertensive effect and effect on a heart rate on rat suffering from a spontaneously hypertensive rat (SHR)]
A blood pressure was measured under no anesthetic condition by means of an apparatus for recording a blood pressure of a tail artery and a heart rate (Riken Kaihatsu Co., Ltd.) (PS-802) and at the same time a heart rate was also measured.
Each of test compounds was dissolved or suspended in an aqueous solution containing 5% by weight of acasia and the obtained solution or suspension was administered once orally to SHR which had been kept under a fast condition for one night. A blood pressure and a heart rate were measured before administration and after one hour, three hours, five hours and seven hours of it and the maximum value of changes were calculated by comparing the value measured before administration with the value measured after administration.
For the purpose of a comparison, the same experiment as mentioned above was carried out on both Labetalol and Diltiazem as mentioned above.
With respect to a dosage, 100 mg/kg and 10 mg/kg as to compounds obtained by Examples 2, 5, 6, 9 and 18 to 23 were respectively administered, 100 mg/kg as to compounds obtained by Examples 1, 3, 4, 7 and 10 to 17 was respectively administered.

[2] = target: T1, α-adrenergic blockade (vas deferens specimen, contraction by noradrenalin) (Rattus norvegicus, UniProt P43140); assay: α-Adrenergic blockade effect (contraction response by noradrenalin of vas deferens specimen, Magnus method); set-up: species or system Wister male rat; settings: for Kb: rat vas deferens, antagonism of noradrenalin contraction, pA2 = negative logarithm of antagonist dose shifting agonist curve two times, read-out: α-Adrenergic blockade effect, pA2 value (converted)
T1 construct: from tissue; host or cells: vas deferens of six-week-old male Wistar rat
T1 sequence (P43140 1-466): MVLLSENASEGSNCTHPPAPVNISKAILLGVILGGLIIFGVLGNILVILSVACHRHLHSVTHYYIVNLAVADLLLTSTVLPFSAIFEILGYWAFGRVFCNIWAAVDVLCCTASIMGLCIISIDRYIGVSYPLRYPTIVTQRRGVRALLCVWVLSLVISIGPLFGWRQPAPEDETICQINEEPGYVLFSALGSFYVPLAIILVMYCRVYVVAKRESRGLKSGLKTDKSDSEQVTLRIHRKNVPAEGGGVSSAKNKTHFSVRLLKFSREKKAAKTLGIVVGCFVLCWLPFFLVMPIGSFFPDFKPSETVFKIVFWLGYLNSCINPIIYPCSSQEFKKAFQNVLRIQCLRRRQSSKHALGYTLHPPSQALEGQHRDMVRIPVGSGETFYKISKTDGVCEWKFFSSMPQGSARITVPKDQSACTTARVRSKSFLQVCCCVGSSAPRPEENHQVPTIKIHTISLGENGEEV

[3] = Increasing effect on a coronary blood flow (anesthetized dog); assay type: in vivo; settings: administered once into perfusion channel
Experimental: [Increasing effect on a coronary blood flow]
Adult dog weighed 9 to 13 kg which was anesthetized intravenously with 30 mg/kg of pentobarbiturate was used for this experiment. The animal was cut open at a chest under a condition of an artificial respiration. After an intravenous injection of 1000 U/kg of heparin, a glass cannula was inserted into coronary ramus circumflexus by way of a left subclavina artery and a perfusion was carried out with blood introduced from a right carotid artery. A blood flow was measured by means of a electromagnetic flowmeter set up at a perfusion channel.
Each of test compounds was dissolved in a physiologic salt solution and the solution was administered once into a perfusion channel. An increase of a coronary blood flow was indicated as a percentage of an increasing rate.
For the purpose of a comparison, the same experiment as mentioned above was carried out on Papavelin which was commonly used as coronary vasodilator.

[4] = target: T2, calcium antagonism (thoracic aorta spiral specimen, contraction by calcium) (Cavia porcellus, UniProt O35505); assay: Calcium antagonistic effect (contraction response by calcium of spiral thoracic aorta specimen, Magnus method); set-up: species or system Hartly male giunea pig; settings: guinea pig thoracic aorta; for Kb: antagonism of calcium contraction, read-out: Calcium antagonistic effect, pA2 value (converted)
T2 construct: from tissue; host or cells: thoracic aorta spiral strip of male Hartley guinea pig
T2 sequence (O35505 whole entry): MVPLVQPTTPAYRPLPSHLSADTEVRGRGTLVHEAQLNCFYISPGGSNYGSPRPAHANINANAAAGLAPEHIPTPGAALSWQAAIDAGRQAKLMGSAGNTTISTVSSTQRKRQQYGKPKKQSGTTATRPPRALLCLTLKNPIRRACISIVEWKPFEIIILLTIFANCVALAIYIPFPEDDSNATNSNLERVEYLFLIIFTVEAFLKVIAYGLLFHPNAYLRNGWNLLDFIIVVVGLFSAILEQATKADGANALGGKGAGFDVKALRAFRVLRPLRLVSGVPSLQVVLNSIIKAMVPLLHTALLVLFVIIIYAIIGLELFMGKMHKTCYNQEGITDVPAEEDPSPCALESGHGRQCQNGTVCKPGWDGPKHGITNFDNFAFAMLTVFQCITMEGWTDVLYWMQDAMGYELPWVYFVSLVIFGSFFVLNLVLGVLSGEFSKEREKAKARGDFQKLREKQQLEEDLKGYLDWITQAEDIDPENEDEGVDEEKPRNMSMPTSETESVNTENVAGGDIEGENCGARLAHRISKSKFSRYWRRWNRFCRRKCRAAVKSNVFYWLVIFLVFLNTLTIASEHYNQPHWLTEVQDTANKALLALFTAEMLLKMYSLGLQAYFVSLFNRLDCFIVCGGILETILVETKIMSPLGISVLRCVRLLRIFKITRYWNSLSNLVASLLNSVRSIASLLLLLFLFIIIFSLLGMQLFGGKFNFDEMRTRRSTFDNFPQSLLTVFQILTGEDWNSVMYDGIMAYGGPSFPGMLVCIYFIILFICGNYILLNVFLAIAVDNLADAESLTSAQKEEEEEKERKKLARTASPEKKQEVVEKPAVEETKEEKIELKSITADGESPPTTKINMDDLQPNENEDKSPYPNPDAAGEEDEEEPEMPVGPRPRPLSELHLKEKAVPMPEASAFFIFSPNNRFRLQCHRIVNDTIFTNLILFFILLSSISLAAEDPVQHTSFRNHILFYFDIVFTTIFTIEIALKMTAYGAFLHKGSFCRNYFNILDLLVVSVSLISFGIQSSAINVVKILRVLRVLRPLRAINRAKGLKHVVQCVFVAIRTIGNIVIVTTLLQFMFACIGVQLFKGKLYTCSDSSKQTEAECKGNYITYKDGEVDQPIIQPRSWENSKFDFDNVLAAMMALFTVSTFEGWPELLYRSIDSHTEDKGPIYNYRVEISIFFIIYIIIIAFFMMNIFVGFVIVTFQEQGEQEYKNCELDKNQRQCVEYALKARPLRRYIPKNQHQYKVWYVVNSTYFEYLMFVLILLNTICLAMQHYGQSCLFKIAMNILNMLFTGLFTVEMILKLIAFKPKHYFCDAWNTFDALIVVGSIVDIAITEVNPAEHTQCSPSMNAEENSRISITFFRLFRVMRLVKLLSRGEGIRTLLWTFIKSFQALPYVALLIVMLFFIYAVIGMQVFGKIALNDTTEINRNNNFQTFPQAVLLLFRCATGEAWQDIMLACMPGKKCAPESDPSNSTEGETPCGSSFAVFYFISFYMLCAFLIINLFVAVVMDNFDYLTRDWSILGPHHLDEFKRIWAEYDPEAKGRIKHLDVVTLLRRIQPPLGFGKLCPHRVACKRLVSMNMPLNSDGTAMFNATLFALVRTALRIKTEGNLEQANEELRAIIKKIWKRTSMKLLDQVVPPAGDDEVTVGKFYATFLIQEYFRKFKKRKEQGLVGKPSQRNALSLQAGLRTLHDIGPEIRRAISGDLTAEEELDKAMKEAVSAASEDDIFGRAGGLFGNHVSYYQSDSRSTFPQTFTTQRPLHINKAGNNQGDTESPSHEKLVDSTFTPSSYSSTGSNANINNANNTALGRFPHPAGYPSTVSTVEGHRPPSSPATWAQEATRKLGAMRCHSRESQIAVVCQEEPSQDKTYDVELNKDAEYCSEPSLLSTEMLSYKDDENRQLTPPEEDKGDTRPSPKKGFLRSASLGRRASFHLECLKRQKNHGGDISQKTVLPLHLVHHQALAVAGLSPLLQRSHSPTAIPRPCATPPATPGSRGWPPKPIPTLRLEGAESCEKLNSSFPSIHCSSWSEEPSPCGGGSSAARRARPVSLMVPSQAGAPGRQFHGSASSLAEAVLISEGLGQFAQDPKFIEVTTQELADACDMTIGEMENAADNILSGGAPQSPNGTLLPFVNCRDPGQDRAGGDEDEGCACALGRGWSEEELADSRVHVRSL
Experimental: [Calcium antagonistic effect]
Using a spiral blood vessel specimen taken from a thoracic aorta of Hartly male giunea pig weighed 400 to 600 g, a contraction response by calcium was measured as a dose-response curve according to Magnus method and the antagonistic activity for each test compound was indicated as above-mentioned pA2 value.

[5] = Accute toxicity test (LD50 value); settings: mouse, in vivo; mice; single oral administration; deaths by seventh day; Litchfield-Wilcoxon
Experimental: [Accute toxicity test (LD50 value)]
The experiment was carried out using six weeks old ddy male mice.
Each of test compounds was suspended in an aqueous solution containing 5% by weight of acasia and the suspension was administered compulsorily once orally with a gastric probe. Within six hours after the start of the administration, the behavior of tested mice were observed consecutively. Thereafter, the observation was made at an interval of twenty four hours during 7 days and an accumulative number of deaths seventh day since the start of the administration was measured.
LD50 value was calculated according to the Litchfield-Wilcoxon method.

[6] = 10 mg/kg, maximum over 1, 3, 5, 7 hours (Table 2)
[7] = 100 mg/kg, maximum over 1, 3, 5, 7 hours (Table 2)
[8] = 100 mg/kg, maximum over 1, 3, 5, 7 hours (Table 3)

For `COc1ccccc1N1CCN(CC(O)COc2cccc3cc(C(N)=O)oc23)CC1` (centres unmarked) [Ex. 9, 2-carbamoyl-7-{2-hydroxy-3-[4-(2-methoxyphenyl)-piperazinyl]propoxy}benzofuran], the “Maximum value of change, heart rate” value [1, 6] was -154.2 ± 17.3 beats/min, the “Maximum value of change, systolic pressure” value [1, 6] was -61.2 ± 4.3 mmHg and the “Maximum value of change, heart rate” value [1, 7] was -69.2 ± 12.1 beats/min. For the same molecule, the “Maximum value of change, systolic pressure” value [1, 7] was -75.6 ± 2.4 mmHg, the Kb [2] was 27.5 nM and the “Increasing rated of coronary blood flow when administered with a 1 mg” value (“Increasing rated of coronary blood flow” below) [3] was 105.6 ± 11.8%. For the same molecule, the Kb [4] was 631 nM and the LD50 at 168 h [5] was > 1500 mg/kg.

With `CC(=O)c1cc2cccc(OCC(O)CN3CCN(c4cccc(Cl)c4)CC3)c2o1` (centres unmarked) [Ex. 8 (HCl salt), 2-acetyl-7-{3-[4-(3-chlorophenyl)piperazinyl]-2-hydroxypropoxy}benzofuran] the “Maximum value of change, heart rate” value [1, 8] was -98.4 ± 17.2 beats/min, the “Maximum value of change, systolic pressure” value [1, 8] was -44.2 ± 8.4 mmHg and the Kb [2] was 468 nM. The “Increasing rated of coronary blood flow” value [3] was 96.3 ± 13.1%, the Kb [4] was 85.1 nM and the LD50 at 168 h [5] was > 1000 mg/kg.

With `COc1ccccc1N1CCN(CC(O)COc2cccc3cc(C(C)=O)oc23)CC1` (centres unmarked) [Ex. 2 (HCl salt), 2-acetyl-7-{2-hydroxy-3-[4-(2-methoxyphenyl)piperazinyl]-propoxy}benzofuran] the Kb [2] was 38.9 nM, the “Increasing rated of coronary blood flow” value [3] was 88.4 ± 14.2% and the Kb [4] was 195 nM.

With `COc1ccc(Cc2nccc3cc(OC)c(OC)cc23)cc1OC` [papavelin, Papavelin, reference compound] the “Increasing rated of coronary blood flow” value [3] was 136.3 ± 27.0%.

For `COc1ccccc1N1CCN(CC(O)COc2ccc3oc(C(C)=O)cc3c2)CC1` (centres unmarked) [Ex. 5 (HCl salt)], the “α-Adrenergic blockade effect, relative ratio as compared with Phentolamine” value [2] was 3.2, the Kb [2] was 49 nM and the “Increasing rated of coronary blood flow” value [3] was 107.5 ± 6.5%. For the same molecule, the “Calcium antagonistic effect, relative ratio as compared with Diltiazem” value ([4]; Diltiazem = 1.0) was 1.9, the Kb [4] was 46.8 nM and the LD50 at 168 h [5] was > 1500 mg/kg.

With `Cc1ccccc1N1CCN(CC(O)COc2ccc3cc(C(N)=O)oc3c2)CC1` (centres unmarked) [Ex. 14, 2-carbamoyl-6-{2-hydroxy-3-[4-(2-methylphenyl)piperazinyl]-propoxy}benzofuran] the “Maximum value of change, heart rate” value [1, 8] was -132.9 ± 28.8 beats/min, the “Maximum value of change, systolic pressure” value [1, 8] was -67.3 ± 6.8 mmHg and the Kb [2] was 110 nM. The Kb [4] was 182 nM and the LD50 at 168 h [5] was > 1000 mg/kg.

With `COc1ccccc1N1CCN(CC(O)COc2cccc3cc(C(C)O)oc23)CC1` (centres unmarked) [Ex. 22, 2-(1-hydroxyethyl)-7-{2-hydroxy-3-[4-(2-methoxyphenyl)piperazinyl]propoxy}benzofuran] the “Maximum value of change, heart rate” value [1, 6] was -149.2 ± 15.3 beats/min, the “Maximum value of change, systolic pressure” value [1, 6] was -42.8 ± 6.7 mmHg and the “Maximum value of change, heart rate” value [1, 7] was -160.2 ± 19.8 beats/min. The “Maximum value of change, systolic pressure” value [1, 7] was -69.5 ± 7.9 mmHg, the Kb [2] was 50.1 nM and the “Increasing rated of coronary blood flow” value [3] was 87.7 ± 9.4%. The Kb [4] was 1050 nM and the LD50 at 168 h [5] was > 1500 mg/kg.

With `NC(=O)c1cc2cccc(OCC(O)CN3CCN(c4cccc(Cl)c4)CC3)c2o1` (centres unmarked) [Ex. 15] the “Maximum value of change, heart rate” value [1, 8] was -100.0 ± 19.5 beats/min, the “Maximum value of change, systolic pressure” value [1, 8] was -79.9 ± 11.9 mmHg and the Kb [2] was 3020 nM. For the same molecule, the Kb [4] was 398 nM and the LD50 at 168 h [5] was > 1000 mg/kg.

With `COc1ccc(N2CCN(CC(O)COc3cccc4cc(C(C)=O)oc34)CC2)cc1` (centres unmarked) [Ex. 3 (HCl salt), 2-acetyl-7-{2-hydroxy-3-[4-(4-methoxyphenyl)piperazinyl]-propoxy}benzofuran] the “Maximum value of change, heart rate” value [1, 8] was -200.0 ± 28.4 beats/min, the “Maximum value of change, systolic pressure” value [1, 8] was -22.9 ± 1.7 mmHg and the Kb [2] was 457 nM. The Kb [4] was 631 nM and the LD50 at 168 h [5] was 700 mg/kg.
